Measured values as given in US11267859B2, “GM-CSF mimetics and methods of making and using same” (The Regents of the University of Colorado, a body corporate, priority 2017, dated 2022).

Columns and labels:
mouse receptor = target: T1, mouse receptor (Mus musculus, UniProt P26955+Q00941); experiment: Activity for the mouse GM-CSF receptor
T1 sequence (Q00941 30-388): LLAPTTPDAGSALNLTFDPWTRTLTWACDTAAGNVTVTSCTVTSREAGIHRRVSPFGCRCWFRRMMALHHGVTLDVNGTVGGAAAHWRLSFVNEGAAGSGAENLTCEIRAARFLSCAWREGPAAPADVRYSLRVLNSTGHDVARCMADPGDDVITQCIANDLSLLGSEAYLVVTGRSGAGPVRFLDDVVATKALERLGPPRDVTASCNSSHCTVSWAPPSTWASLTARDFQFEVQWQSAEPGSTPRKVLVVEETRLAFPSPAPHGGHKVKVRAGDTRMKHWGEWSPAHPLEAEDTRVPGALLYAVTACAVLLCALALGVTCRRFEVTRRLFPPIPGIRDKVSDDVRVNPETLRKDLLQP
T1 sequence (P26955 23-896): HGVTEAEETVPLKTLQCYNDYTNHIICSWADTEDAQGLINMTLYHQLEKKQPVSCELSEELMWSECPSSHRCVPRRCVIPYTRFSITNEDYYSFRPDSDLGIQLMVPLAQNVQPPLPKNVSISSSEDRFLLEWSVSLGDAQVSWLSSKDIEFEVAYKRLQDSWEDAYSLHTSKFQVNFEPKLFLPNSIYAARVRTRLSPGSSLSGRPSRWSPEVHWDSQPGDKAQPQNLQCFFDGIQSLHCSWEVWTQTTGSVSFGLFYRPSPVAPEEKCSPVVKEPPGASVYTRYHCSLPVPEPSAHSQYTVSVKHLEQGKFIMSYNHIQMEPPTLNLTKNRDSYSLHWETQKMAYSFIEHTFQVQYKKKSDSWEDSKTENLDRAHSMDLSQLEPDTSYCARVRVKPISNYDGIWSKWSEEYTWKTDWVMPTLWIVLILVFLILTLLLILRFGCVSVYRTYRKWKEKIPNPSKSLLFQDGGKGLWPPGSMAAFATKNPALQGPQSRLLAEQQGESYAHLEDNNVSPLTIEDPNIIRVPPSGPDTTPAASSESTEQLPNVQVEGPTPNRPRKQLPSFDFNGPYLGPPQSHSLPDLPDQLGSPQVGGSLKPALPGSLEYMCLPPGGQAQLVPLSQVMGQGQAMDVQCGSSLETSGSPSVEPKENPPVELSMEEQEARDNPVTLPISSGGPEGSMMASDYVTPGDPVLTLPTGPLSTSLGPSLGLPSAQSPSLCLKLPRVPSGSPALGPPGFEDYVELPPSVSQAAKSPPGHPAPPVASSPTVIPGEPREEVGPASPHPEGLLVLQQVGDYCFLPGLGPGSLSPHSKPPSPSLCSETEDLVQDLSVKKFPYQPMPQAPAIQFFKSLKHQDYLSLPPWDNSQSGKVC

human receptor = target: T2, human receptor (Homo sapiens, UniProt P15509+P32927); experiment: Activity for the human GM-CSF receptor
T2 sequence (P15509 23-400): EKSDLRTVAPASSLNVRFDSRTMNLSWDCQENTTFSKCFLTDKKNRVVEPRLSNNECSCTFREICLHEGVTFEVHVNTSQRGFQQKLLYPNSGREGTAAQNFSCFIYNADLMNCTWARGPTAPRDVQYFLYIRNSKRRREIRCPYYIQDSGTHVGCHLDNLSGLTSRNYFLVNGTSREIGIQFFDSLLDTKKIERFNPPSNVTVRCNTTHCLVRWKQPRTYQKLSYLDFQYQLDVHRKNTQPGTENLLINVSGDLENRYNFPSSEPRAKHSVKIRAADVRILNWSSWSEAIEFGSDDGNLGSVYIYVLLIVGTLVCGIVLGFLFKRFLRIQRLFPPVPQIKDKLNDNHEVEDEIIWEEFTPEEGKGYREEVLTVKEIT
T2 sequence (P32927 17-897): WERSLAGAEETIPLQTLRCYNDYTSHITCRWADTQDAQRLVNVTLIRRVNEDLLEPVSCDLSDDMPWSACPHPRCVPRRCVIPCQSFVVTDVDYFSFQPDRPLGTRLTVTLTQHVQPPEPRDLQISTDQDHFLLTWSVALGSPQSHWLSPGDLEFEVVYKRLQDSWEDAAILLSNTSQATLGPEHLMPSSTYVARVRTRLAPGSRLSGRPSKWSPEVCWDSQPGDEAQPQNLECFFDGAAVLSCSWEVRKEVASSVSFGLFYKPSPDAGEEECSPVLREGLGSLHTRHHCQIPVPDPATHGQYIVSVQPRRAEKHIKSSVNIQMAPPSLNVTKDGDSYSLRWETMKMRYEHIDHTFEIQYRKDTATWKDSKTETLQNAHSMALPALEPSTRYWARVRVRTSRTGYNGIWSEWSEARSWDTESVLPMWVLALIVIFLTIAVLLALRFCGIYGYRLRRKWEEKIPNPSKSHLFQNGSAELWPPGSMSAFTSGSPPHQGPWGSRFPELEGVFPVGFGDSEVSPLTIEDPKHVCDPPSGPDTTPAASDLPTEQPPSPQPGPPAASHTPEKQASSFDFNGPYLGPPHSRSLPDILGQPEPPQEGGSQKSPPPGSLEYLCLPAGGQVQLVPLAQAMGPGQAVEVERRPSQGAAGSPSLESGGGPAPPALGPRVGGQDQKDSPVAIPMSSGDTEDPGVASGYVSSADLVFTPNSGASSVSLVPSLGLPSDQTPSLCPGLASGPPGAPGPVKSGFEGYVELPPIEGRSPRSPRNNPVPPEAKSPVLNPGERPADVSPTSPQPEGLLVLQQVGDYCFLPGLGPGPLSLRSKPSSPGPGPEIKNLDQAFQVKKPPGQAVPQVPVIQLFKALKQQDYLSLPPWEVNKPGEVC

QPWEHVNAIQEAR {PEG4} DFLLVIP {PEG4} QPWEHVNAIQEAR {PEG4} DFLLVIP [Mimetic M7]
activity for the mouse receptor (mouse receptor): has activity
activity for the human receptor (human receptor): does not have activity
